Data reported in US20060276385A1, “Anti-inflammatory agents and methods of their use” (priority 2003, published 2006).

Legend:
[1] = test system: MAEC; test: Monocyte adhesion: THP-1 monocytes bound to mouse aortic endothelial cells; type: cell-based
Experimental: (§1) Endothelial cells: Mouse aortic endothelial cells (MAEC) were cultured and used at passages 4-8 as described (Cai, H., et al. (2002) J Bio Chem 107, 48311-48317). Human aortic endothelial cells (HAEC) purchased from Clonetics were cultured using EGM-2 bullet kit (Clonetics) and used at passages 4-8. Alternatively, endothelial cells obtained from the thoracic aortas of C57/BL6 control (MAE-wt) and p47^phox-null mice (MAE-p47^−/−) were isolated and cultured as described previously (Hwang, J. et al. (2003) J Biol Chem 278:47291-8), and used between passages 4-10.
(§2) Shear stress studies: Confluent endothelial monolayers grown in 100 mm tissue culture dishes were exposed to an arterial level of uni-directional LS (15 dyn/cm^2) in the growth medium by rotating a Teflon cone (0.5° cone angle) as described previously. To mimic unstable shear conditions in vivo, endothelial cells were exposed to OS with directional changes of flow at 1 Hz cycle (±5 dyn/cm^2) by rotating the cone back-and-forth using a stepping motor (Servo Motor) and a computer program (DC Motor Company, Atlanta, Ga.). In some studies, 5 dyn/cm^2 unidirectional LS was used for comparison to OS (±5 dyn/cm^2).
Monocyte Adhesion: Monocyte binding was determined under no-flow conditions using THP-1 monocytes (ATCC) by the method described by Chappel et al (Chappell, D. C., et al. (1998) Circ Res 82, 532-539). Briefly, THP-1 cells (5×10^5 cells/ml) were labeled with a fluorescent dye 2′,7′-bis(carboxyethyl)-5(6)-carboxyfluorescein-AM (BCECF, Molecular Probes) (1 mg/ml) in serum-free RPMI medium for 45 min at 37° C. Following exposure to shear stress or BMP treatments in the presence or absence of noggin or vehicle, the endothelial cells were washed in RPMI medium before adding BCECF-loaded THP-1 cells (1:1 ratio). After a 30 min incubation at 37° C. under no-flow conditions, unbound monocytes were removed by washing the endothelial dishes 5 times with Hank's PBS. Bound monocytes were quantified by either counting the cells under a fluorescent microscope or by measuring the fluorescent intensity of cell lysates by fluorescence spectrophotometry using a plate reader. […] Some studies were performed with MAEC pretreated with 5 μg/ml of mouse-ICAM1 antibody (YN1, Southern Biolechonology) (Kevil, C. G., et al. (2001) Am J Physiol Cell Physiol 281, C1442-1447).
In FIG. 7B, confluent MAE-wt cells were pre-incubated with cell-permeable PEG-catalase (Catalase, 100 U/ml for 18 hrs) or Tiron (10 μmol/L for 1 hr). Cells were then incubated with 20 ng/ml BMP4 or vehicle for additional 18 hrs. The treated cells in 7A and 7B were washed, and fluorescently-labeled THP-1 monocytes were added. Unbound THP-1 cells were washed after 30 min, and bound monocytes were counted with a fluorescence microscope using a 10× objective (5-10 different fields per dish). […] As a positive control, monocyte binding was determined using MAE-wt treated with TNF-α(100 U/ml for 2hrs).

[2] = test system: ICAM-1; test: ICAM-1 surface expression by FACS analysis in HAEC; type: cell-based, human
Experimental: as §1, §2
Fluorescence activated cytometry sorting (FACS) analysis: Treated cells were dissociated into single cell suspensions using 0.25% trypsin-EDTA and resuspended in a FACS buffer (Hank's buffered solution containing 5% FBS). Aliquots of cell suspensions were incubated with ICAM-1 antibody (R&D Systems) for 20 min on ice, washed twice with FACS buffer, and incubated with secondary antibody (fluorescein-5-isothiocyanate- or phycoerytherin-conjugated, Chemicon) for 20 min on ice in the dark. Then samples were washed again, fixed in 1% paraformaldehyde and analyzed by FACS (Calibur, Becton-Dickinson) using CellQuest software. The fluorescence intensity of ICAM-1 and forward cell scattering of 30,000 cells were measured and the geometric means calculated from histograms were shown. In some studies, HAEC were transfected with either BMP4 cloned in a bi-cistronic pAdTrack CMV vector or an empty vector, both expressing green fluorescent protein (GFP), using Lipofectamine 2000. In these experiments, ICAM-1 expression was measured in the red phycoerytherin channel, while the green channel was used to monitor the […] expression-GFP expression was determined by FACS analysis and fluorescence microscopy (20-30% transfection efficiency). Because expression of GFP was similar among different treatment groups within the same experiment, it was unnecessary to normalize ICAM-1 expression data to GFP level. Human recombinant noggin was purchased from R&D Systems and used in all experiments at 50 ng/ml (Dale, L., and Jones, C. M. (1999) Bioessays 21, 751-760; Zimmerman, L. B., et al. (1996) Cell 86, 599-606; Brunei, L. J., et al. (1998) Science 280, 1455-1457).

[3] = test system: MAE-wt cells; test: H2O2 assay by oxidation of DCF-DA; type: cell-based, mouse; conditions: BMP4 18 hrs
Experimental: H2O2 assay: Cells grown in 6-well plates were treated with BMP4 or vehicle control for 18 hrs in the presence or absence of cell-permeable polyethylene glycol (PEG)-catalase (100 U/ml). Cells were then washed once with Hepes buffered saline solution (HBSS) followed by incubation with 7.5 μg/ml 2′, 7′-dichlorofluorescein diacetate (DCF-DA, Molecular Probes) in HBSS for 1 hr at 37 C° in the dark. Cells were washed with HBSS, incubated further for an additional 40 min in HBSS, and the DCF fluorescence intensities were measured in a Cytofluor Multi-Well plate reader (excitation at 475 nm and emission at 525 nm).
In addition, BMP4 stimulated production of H2O2 by 70% above control as determined by oxidation of DCF-DA (FIG. 10B). […] The cells were washed, incubated with DCF-DA, and the fluorescent intensities determined by fluorometry. Shown is a mean±SEM (n=3, p<0.05). In this assay, a redox cycling menadione (10 μM) was used as positive control (data not shown).

BMP4
monocyte adhesion above vehicle control ([1]; MAE-wt cells, BMP4 20 ng/ml, 18 hrs): 5 to 6 fold | effect on LS inhibition of monocyte adhesion ([1]; MAEC sheared (LS) 24 hrs in medium supplemented with BMP4): inhibitory effect of LS on monocyte adhesion was lost | monocyte binding, maximum activation over control ([1]; MAEC treated with increasing concentrations of BMP4 for 24 hr (overnight)): 4 to 7 fold | BMP4 concentration inducing maximum effect on monocyte adhesion ([1]; MAEC, 24 hr): 50 ng/mL | lowest BMP4 concentration inducing a statistically significant increase in monocyte adhesion ([1]; MAEC, 24 hr): 0.1 ng/mL | ICAM-1 expression above vector control cells ([2]; HAEC transfected with BMP4 vector (Lipofectamine)): 3 to 4 fold | ICAM-1 expression above empty vector control ([2]; HAEC, BMP4 overexpression (transfection)): 84% | production of H2O2 above control [3]: 70%
